Active and inactive are the calls of the source.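 How the source made its calls: active means AC50 no more than ten times the top concentration tested, that is within one log above it; inconclusive means flat curve fit with activity between 30% and 70%, or invalid poor fit; inactive means AC50 beyond ten times the top tested dose.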
System: S. cerevisiae Mot1-301 ts growth rescue, BacTiter-Glo ATP luminescence
Assay: restored Mot1-301 yeast growth at 38.5C – whole organism, S. cerevisiae, Mot1-301 ts mutant, luminescence, dose retest, SUMOylation pathway inhibitor project, confirmation (AID 463204);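 further: growth at restrictive 38.5 degrees C of Mot1-301 OY566 strain; actives raise luminescence by restoring growth of the ts mutant at high temperature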

| Structure (SMILES) | AC50 |
| --- | --- |
| CC[C@H]1CCCCc2ccccc2[C@@H](C(=O)C[C@@H](O)CC(C)=O)OC1=O | 14.2 µM |
| N/C(=N\N=C\c1ccc(O)cc1)c1nonc1N | > 42 µM (inactive) |
| CC(C)NC(=O)NC(=O)COC(=O)CCCSc1nc2ccccc2s1 | > 42 µM (inactive) |
| CC(C)(C)C(=O)NC1CCN(CC(=O)Nc2ccc3c(c2)OCO3)CC1 | > 42 µM (inactive) |
| COc1cc(CN2CCC(Oc3cc(C(=O)NC4CC4)ccc3OC)CC2)cc(OC)c1 | 34.8 µM |
| C=CCN(C(=O)CNC(=O)c1ccco1)C(C(=O)NC1CCCCC1)c1ccccc1 (stereo not given) | > 42 µM (inactive) |
| O=C1CN(C(=O)c2ccccc2F)C(c2ccccc2)c2cc(Cl)ccc2N1 (stereo not given) | 1.84 µM |
| COc1cc2c(=O)n(CCC(=O)NCC3CCCO3)c(=O)n(CC(=O)Nc3ccccc3C)c2cc1OC (stereo not given) | > 42 µM (inactive) |
| CC1=CC(=O)C(C(C)C)=C/C1=N/OS(=O)(=O)c1ccccc1 | 0.92 µM |
| Cc1ccc(/C=C/C(=O)O)cc1S(=O)(=O)N(CCO)CCO | > 42 µM (inactive) |
| Cc1cccc(-[n+]2c(-c3cccc(Br)c3)[nH]c3nc4ccccc4nc32)c1 | > 42 µM (inactive) |
| CN(C)CCN(Cc1ccc(Cl)cc1)c1ccccn1 | > 42 µM (inactive) |
| CN(C(=O)COC(=O)c1cc2ccccc2cc1O)c1c(N)n(Cc2ccccc2)c(=O)[nH]c1=O | > 42 µM (inactive) |
| O=c1c2c(ncn1Cc1ccccc1)nc1n2CCC1 | > 42 µM (inactive) |
| CCN(C(=O)Nc1ccccc1OC)c1c(N)n(Cc2ccccc2)c(=O)[nH]c1=O | > 42 µM (inactive) |
| COc1ccc(Cl)cc1N(C(=O)c1ccco1)C(C(=O)NC1CCCC1)c1ccncc1 (stereo not given) | > 42 µM (inactive) |
| CCCn1nc(C(=O)NNC(=O)c2cc(S(=O)(=O)NC)ccc2Br)c2ccccc2c1=O | > 42 µM (inactive) |
| CCOC(=O)COc1nc(-c2ccc(C)cc2)cc(-c2ccco2)c1C#N | > 42 µM (inactive) |
| Cc1nn(CC(N)=O)c(=O)c2ccccc12 | > 42 µM (inactive) |
| CCCOc1ccccc1C1NC(=O)NC(C)=C1C(=O)OCc1ccccc1 (stereo not given) | > 42 µM (inactive) |
| Nc1ccc(N2CCN(c3ccc(F)cc3)CC2)cc1 | > 42 µM (inactive) |
| CN(C)C(=O)c1cc(C(=O)c2ccc(C(F)(F)F)cc2F)c[nH]1 | > 42 µM (inactive) |
| Cc1ccc(N2CN(CCc3ccccc3)CNC2=S)cc1 | > 42 µM (inactive) |
| CC(OC(=O)c1cc(S(=O)(=O)N2CCOCC2)ccc1F)C(=O)NCc1ccc2c(c1)OCO2 (stereo not given) | > 42 µM (inactive) |

| Structure (SMILES) | AC50 |
| --- | --- |
| Cn1c(=O)nc2n(Cc3ccccc3)c3ccccc3cc-2c1=O | > 42 µM (inactive) |
| CCOC(=O)CSc1nc2ccccc2c(=O)n1CC(C)C | > 42 µM (inactive) |
| CN(C)S(=O)(=O)c1ccc(C(=O)/C=C/c2cccnc2)cc1 | > 42 µM (inactive) |
| COc1ccc(N(C(=O)c2ccco2)C(C(=O)NC2CCCCC2)c2ccccc2)cc1 (stereo not given) | > 42 µM (inactive) |
| Cc1ccc(-c2nn(-c3ccccc3)cc2C(=O)N2CCN(c3ccccn3)CC2)cc1 | > 42 µM (inactive) |
| CC(=O)Nc1nn(C)c2nc3ccc(C)cc3cc12 | > 42 µM (inactive) |
| COc1ccc(C(=O)c2c(C)c3cc(C)ccc3n2CC(O)CN2CCOCC2)cc1 (stereo not given) | > 21 µM (inactive) |
| CCC(Cc1ccccc1)NC(=O)C1CCN(c2nn3c(=O)cc(C)nc3s2)CC1 (stereo not given) | > 42 µM (inactive) |
| Cc1ccc(N2C(=O)C3N=NN(CC(=O)N4N=C(c5cccc6ccccc56)CC4c4ccccc4)C3C2=O)cc1 (stereo not given) | > 21 µM (inactive) |
| CCCCN(C)C(=O)CCC(=O)Nc1ccc2nc(N3CCN(C)CC3)cc(C)c2c1 | > 42 µM (inactive) |
| COc1ccccc1N1CCN(CCN2C(=O)C3CCCCN3C2=O)CC1 (stereo not given) | > 42 µM (inactive) |
| CC/C(=N\NC(=O)c1nnn(-c2nonc2N)c1-c1cccs1)c1ccccc1 | > 42 µM (inactive) |
| CCOc1ccc(NS(=O)(=O)c2ccc(C(=O)NCc3cccnc3)cc2)cc1 | > 42 µM (inactive) |
| COc1ccc2c(c1)OC[C@H]1[C@H]2N2C(=O)c3ccccc3NC(=O)[C@@]2(C)[C@H]1c1ccccc1 | > 42 µM (inactive) |
| O=C(NCCN1CCOCC1)Nc1ccc(Cl)cc1Cl | > 42 µM (inactive) |
| Cc1ccc(NC(=O)NNC(=O)Cn2nc(-c3ccccc3)c(-c3ccccc3)c(C#N)c2=O)cc1 | > 42 µM (inactive) |
| NC1=NC(=Nc2ccc(S(N)(=O)=O)cc2)c2ccccc21 | > 21 µM (inactive) |
| O=C(CN1CCN(Cc2ccc(Cl)cc2)CC1)N/N=C/c1ccncc1 | > 42 µM (inactive) |
| COc1ccccc1NS(=O)(=O)c1cc(Cl)ccc1OC | > 42 µM (inactive) |
| N#Cc1cc2c(nc1SC1CCCCC1O)CCCC2 (stereo not given) | > 42 µM (inactive) |
| O=c1nc(-c2ccccc2)cn[nH]1 | > 42 µM (inactive) |
| CCOC(=O)c1sc(NC(=O)C(CC)OC(=O)c2ccco2)nc1C (stereo not given) | > 42 µM (inactive) |
| NC(=O)c1cc(S(=O)(=O)N2CCCC2)ccc1OCc1ccc(F)cc1 | > 42 µM (inactive) |
| Cc1ccc2nc(NC(=O)CNS(=O)(=O)c3ccc(Br)s3)sc2c1 | > 42 µM (inactive) |

| Structure (SMILES) | AC50 |
| --- | --- |
| COc1ccc(NC(=O)CCC(=O)Nc2nnc(C(F)(F)F)s2)c(OC)c1 | > 42 µM (inactive) |
| Cc1cc([N+](=O)[O-])nn1CC(=O)NNC(=S)Nc1ccc([N+](=O)[O-])cc1 | > 42 µM (inactive) |
| COc1cccc(CN(C)C(=O)C2CCC(=O)N(Cc3cccc(F)c3)C2)c1 (stereo not given) | > 42 µM (inactive) |
| Cc1cc(C)n(C(=O)CNC(=O)c2ccc3c(c2)OCCO3)n1 | > 42 µM (inactive) |
| COc1cccc(C(=O)NCc2ccc(-c3nc4ccccc4s3)cc2)c1 | > 42 µM (inactive) |
| CCOc1ccc(NC(=O)CSc2nnc(Cc3csc(C)n3)o2)cc1 | > 42 µM (inactive) |
| CC(NC(=O)c1ccc(Cl)cc1)C(=O)N1CCCCC1 (stereo not given) | > 42 µM (inactive) |
| COc1ccc(CCC(=O)Nc2ccc3c(c2)OCO3)cc1 | > 42 µM (inactive) |
| CCN1CCCC1CN(Cc1cc2ccc(C)cc2[nH]c1=O)C(=S)Nc1ccc(OC)cc1OC (stereo not given) | > 42 µM (inactive) |
| Cc1c(Cl)cccc1NC(=O)Cn1c(CCC(=O)O)ccc1-c1ccccc1 | > 42 µM (inactive) |
| CCOc1ccccc1N(CC(=O)Nc1ccccc1C(=O)N1CCCC1)S(C)(=O)=O | > 42 µM (inactive) |
| O=C(Nc1ccccc1N1CCN(c2ccccc2)CC1)c1cccc(F)c1 | > 42 µM (inactive) |
| CCN1C(=NCCCCO)N[C@@H](c2cccc(C(F)(F)F)c2)C(C(=O)OC)=C1C | > 42 µM (inactive) |
| OCCc1c[nH]c2cc(F)ccc12 | > 110 µM (inactive) |
| COc1ccccc1/C=C/C(=O)c1c2c(c(C)[nH]c1=O)CCCC2 | > 42 µM (inactive) |
| O=C(N=C1SC2CS(=O)(=O)CC2N1c1ccc(F)c(Cl)c1)C1CC1 (stereo not given) | > 42 µM (inactive) |
| CCCCOc1ccc(C(=O)Nc2ccc(CN3CCOCC3)cc2)cc1 | > 42 µM (inactive) |
| Cn1c(C(=O)NCCc2ccsc2)cc2c(=O)n(C)c3ccccc3c21 | > 42 µM (inactive) |
| Cc1cccn2c(=O)c3cc(C(=O)NCCc4ccccc4)sc3nc12 | > 42 µM (inactive) |
| Cc1ccc(C(C(=O)Nc2ccc3c(c2)OCO3)N(C)C(=O)Cc2c[nH]c3ccccc23)cc1 (stereo not given) | > 42 µM (inactive) |
| Cc1ccc(Oc2ccccc2NC(=O)C2=COCCO2)cc1 | > 42 µM (inactive) |
| CCCOc1ccc([N+](=O)[O-])c(N)c1 | > 42 µM (inactive) |

Reference: PubChem BioAssay AID463204 (Broad Institute, 2010)
